Strand notation (5' to 3'): a small letter for the sugar, then the base; units joined by * are phosphorothioate-linked, units joined directly phosphodiester-linked; [ ] holds rarer units or linkages, { } end groups; capitals alone tell only the bases. d = 2'-deoxy (DNA)
Key:
c-fos mRNA = c-fos mRNA expression in TPA-induced A549 cells, Northern blotting; format: cell-based, human; details: for c-fos mRNA % CONTROL: 400 nM oligonucleotide with LIPOFECTIN, control is TPA induction, at 1 hour, in A549 cells; for inhibition of c-fos mRNA expression: 400 nM oligonucleotide, TPA-induced A549 cells; for c-fos (expression, modified oligonucleotides): Table 10, TPA - no oligo = 100, basal = 3
Protocol: (§1) In order to evaluate the activity of potential c-fos and c-jun modulating oligonucleotides, A549 cells were grown in T-75 flasks until 80-90% confluent. (Cell line A549 is available from, inter alia, the American Type Culture Collection, Rockville, Md., as ATCC No. CCL-185.) At this time, the cells were washed twice with 10 mL of media (DMEM), followed by the addition of 5 mL of DMEM containing 20 μg/mL of LIPOFECTIN™ (i.e., DOTMA/DOPE (N-[1-(2,3-dioleyloxy)propyl]-N,N,N-[…] chloride/dioleoylphosphatidyl ethanolamine)). The oligonucleotides were added from a 10 μM stock solution to a final concentration of 400 nM, and the two solutions were mixed by swirling the flasks. After 4 hours at 37° C., the medium was replaced with DMEM containing 10% serum. At this point, 1 μM 12-O-tetradecanoylphorbol 13-acetate (TPA) was added to induce expression of c-fos and c-jun. Cells were extracted in guanidinium one hour later, and the c-fos and c-jun mRNA expression was determined by Northern blotting. Probes for human c-jun and c-fos were PCR products prepared using primers based on the published sequences thereof (respectively, Hattori et al., Proc. Natl. Acad. Sci. U.S.A., 1988, 85:9148, and Van Straaten et al., Proc. Natl. Acad. Sci. U.S.A., 1983, 80:3183).
Finally, it can also be seen from Table 5 that neither active oligonucleotide has any detectable effect on mRNA levels of the other active oligonucleotide's target.
Once oligonucleotides that modulate c-Fos or c-Jun are identified, derivative or modified oligonucleotides having the same sequence thereas are prepared. In order to evaluate the effect of chemical modifications to oligonucleotides to c-fos and c-jun, the modified oligonucleotides described in Tables 8 and 9 were prepared. The effect of the c-fos-targeted oligonucleotides on c-fos RNA levels were evaluated as described in Examples 2-3. […] Other modified oligonucleotides of the invention are evaluated in like fashion. In order to evaluate the effect of PNA antisense analogs, the PNA analogs of the invention are introduced into appropriate cell lines by microinjection according to the method of Hanvey et al. (Science, 1992, 258:1481). Intracellular delivery of PNA analogs is confirmed by the use of a fluorescently tagged PNA antisense analog conjugate such as, e.g., ISIS 14240.

c-jun mRNA = c-jun mRNA expression in TPA-induced A549 cells, Northern blotting; format: cell-based, human; details: for c-jun mRNA % CONTROL: 400 nM oligonucleotide with LIPOFECTIN, control is TPA induction, at 1 hour, in A549 cells; for inhibition of c-jun mRNA expression: 400 nM oligonucleotide, TPA-induced A549 cells
Protocol: as §1, with “The oligonucleotides were added from a 10 μM stock solution to a final concentration of 400 nM, and the two solutions were mixed by swirling the flasks.” left out

Substance	c-fos mRNA % CONTROL (c-fos mRNA)	further results
AGC-TCC-CTC-CTC-CGG-TTG-CG (AGCTCCCTCCTCCGGTTGCG; antisense; all phosphorothioate, sugars by position and methylation of C not given here) [ISIS 10633]	24 % CONTROL	inhibition of c-fos mRNA expression (c-fos mRNA): 76%
A^SA^SG^ST^SC^SC^ST^ST^SG^SA^SG^SG^SC^SC^SChu SA^SC^SA^SG^SC (AAGTCCTTGAGGCCCACAGC; all phosphorothioate, sugars by position and methylation of C not given here; further chemistry not fully specified) [ISIS 11200]		effect on c-fos mRNA levels during TPA induction (in words) (c-fos mRNA; A549 cells): some enhancement of c-fos modulation; c-fos (expression, modified oligonucleotides) (c-fos mRNA; A549 cells): 5
CCT-CAC-AGG-GCC-AGC-AGC-GT (CCTCACAGGGCCAGCAGCGT; antisense; all phosphorothioate, sugars by position and methylation of C not given here) [ISIS 10637]	35 % CONTROL	
GCT-GCG-CCG-CCG-ACG-TGA-CG (dG*dC*dT*dG*dC*dG*dC*dC*dG*dC*dC*dG*dA*dC*dG*dT*dG*dA*dC*dG; antisense) [ISIS 10578]		c-jun mRNA % CONTROL (c-jun mRNA): 37 % CONTROL
CCC-CTC-CAG-CAG-CTA-CCC-TT (CCCCTCCAGCAGCTACCCTT; antisense; all phosphorothioate, sugars by position and methylation of C not given here) [ISIS 10640]	87 % CONTROL	
TGG-TGC-CTG-CGT-GAT-ACT-CG (TGGTGCCTGCGTGATACTCG; antisense; DNA, all phosphorothioate, methylation of C not given here) [ISIS 10645]	56 % CONTROL	
CCT-GCC-TCG-GCC-TCC-CAA-AG (CCTGCCTCGGCCTCCCAAAG; antisense; DNA, all phosphorothioate, methylation of C not given here) [ISIS 10643]	39 % CONTROL	
GTG-TCT-CGC-CGG-GCA-TCT-CG (dG*dT*dG*dT*dC*dT*dC*dG*dC*dC*dG*dG*dG*dC*dA*dT*dC*dT*dC*dG; antisense) [ISIS 10580]		c-jun mRNA % CONTROL (c-jun mRNA): 19 % CONTROL; inhibition of c-jun mRNA expression (c-jun mRNA): 81%
TTG-CAG-GCA-GGT-CGG-TGA-GC (TTGCAGGCAGGTCGGTGAGC; antisense; all phosphorothioate, sugars by position and methylation of C not given here) [ISIS 10634]	42 % CONTROL	
CGC-CCC-GCC-GCC-GCT-GCT-CA (dC*dG*dC*dC*dC*dC*dG*dC*dC*dG*dC*dC*dG*dC*dT*dG*dC*dT*dC*dA; antisense) [ISIS 10579]		c-jun mRNA % CONTROL (c-jun mRNA): 41 % CONTROL
CAT-CGT-GGC-GGT-TAG-GCA-AA (CATCGTGGCGGTTAGGCAAA; antisense; all phosphorothioate, sugars by position and methylation of C not given here) [ISIS 10630]	91 % CONTROL	
TGC-TGC-TGC-CCT-TGC-GGT-GG (TGCTGCTGCCCTTGCGGTGG; antisense; all phosphorothioate, sugars by position and methylation of C not given here) [ISIS 10636]	42 % CONTROL	
GCC-ACA-CTC-AGT-GCA-ACT-CT (dG*dC*dC*dA*dC*dA*dC*dT*dC*dA*dG*dT*dG*dC*dA*dA*dC*dT*dC*dT; antisense) [ISIS 10570]		c-jun mRNA % CONTROL (c-jun mRNA): 62 % CONTROL
GGT-GCC-GGC-TGC-CTC-CCC-TT (GGTGCCGGCTGCCTCCCCTT; antisense; all phosphorothioate, sugars by position and methylation of C not given here) [ISIS 10638]	22 % CONTROL	inhibition of c-fos mRNA expression (c-fos mRNA): 78%
CCC-CCA-CTT-CCG-CCC-ACT-AT (CCCCCACTTCCGCCCACTAT; antisense; DNA, all phosphorothioate, methylation of C not given here) [ISIS 10644]	104 % CONTROL	
TGG-CAC-GGA-GCG-GGC-TGT-CT (TGGCACGGAGCGGGCTGTCT; antisense; all phosphorothioate, sugars by position and methylation of C not given here) [ISIS 10635]	12 % CONTROL	inhibition of c-fos mRNA expression (c-fos mRNA): 88%
TGC-CCC-TCA-GCC-CCC-GAC-GG (dT*dG*dC*dC*dC*dC*dT*dC*dA*dG*dC*dC*dC*dC*dC*dG*dA*dC*dG*dG; antisense) [ISIS 10583]		c-jun mRNA % CONTROL (c-jun mRNA): 20 % CONTROL; inhibition of c-jun mRNA expression (c-jun mRNA): 80%
GAG-AAC-ATC-ATC-GTG-GCG-GT (GAGAACATCATCGTGGCGGT; antisense; all phosphorothioate, sugars by position and methylation of C not given here) [ISIS 10631]	118 % CONTROL	
CGC-GCC-CGG-CCT-GAA-AAT-TT (CGCGCCCGGCCTGAAAATTT; antisense; DNA, all phosphorothioate, methylation of C not given here) [ISIS 10642]	87 % CONTROL	
ACC-AGC-CCG-GGA-GCC-ACA-GG (dA*dC*dC*dA*dG*dC*dC*dC*dG*dG*dG*dA*dG*dC*dC*dA*dC*dA*dG*dG; antisense) [ISIS 10572]		c-jun mRNA % CONTROL (c-jun mRNA): 39 % CONTROL
A^SA^SG^ST^SC^SC^ST^ST^SG^SA^SG^SG^SC^SC^SC^SA^SC^SA^SG^SC (antisense AAGTCCTTGAGGCCCACAGC; all phosphorothioate, sugars by position and methylation of C not given here) [ISIS 11538]		c-fos (expression, modified oligonucleotides) (c-fos mRNA; A549 cells): 15
CGG-TCA-CTG-CTC-GTT-CGC-TG (CGGTCACTGCTCGTTCGCTG; antisense; all phosphorothioate, sugars by position and methylation of C not given here) [ISIS 10629]	72 % CONTROL	
CGC-ACC-TCC-ACT-CCC-GCC-TC (dC*dG*dC*dA*dC*dC*dT*dC*dC*dA*dC*dT*dC*dC*dC*dG*dC*dC*dT*dC; antisense) [ISIS 10571]		c-jun mRNA % CONTROL (c-jun mRNA): 100 % CONTROL
ACC-GTG-GGA-ATG-AAG-TTG-GC (ACCGTGGGAATGAAGTTGGC; antisense; all phosphorothioate, sugars by position and methylation of C not given here) [ISIS 10632]	63 % CONTROL	
CCC-TCC-CAG-GCT-CAA-GTC-AT (CCCTCCCAGGCTCAAGTCAT; antisense; DNA, all phosphorothioate, methylation of C not given here) [ISIS 10646]	100 % CONTROL	
CCC-CCG-ACC-GTC-TCT-CTT-CA (dC*dC*dC*dC*dC*dG*dA*dC*dC*dG*dT*dC*dT*dC*dT*dC*dT*dT*dC*dA; antisense) [ISIS 10581]		c-jun mRNA % CONTROL (c-jun mRNA): 24 % CONTROL; inhibition of c-jun mRNA expression (c-jun mRNA): 76%
TGC-TCG-CTG-CAC-ATG-CGG-TT (TGCTCGCTGCACATGCGGTT; antisense; all phosphorothioate, sugars by position and methylation of C not given here) [ISIS 10628]	79 % CONTROL	
TCC-CGT-CCC-CAG-AAG-CAG-TA (TCCCGTCCCCAGAAGCAGTA; antisense; DNA, all phosphorothioate, methylation of C not given here) [ISIS 10641]	68 % CONTROL	

From patent US20030194738A1, “Antisense oligonucleotide compositions and methods for the modulation of activating protein 1” (priority 1997, published 2003)
